Results on 13 compounds are retold here after PubChem BioAssay (NCI).

The structures appear in SMILES notation. Where “and” joins values, the source holds several entries; their conditions need not be identical. Equal values may be shown once.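 Assay format: 96-well plates, 48-hour exposure. At the GI50, growth is halved. TGI is the concentration that stops growth completely.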

Test systems include NCI/ADR-RES ovarian; MCF7 breast; PC-3 prostate; BT-549 breast.
Common to all, as to test: NCI anticancer screen, dose series, 48 h

As for `COc1cc(C(=O)Nc2cc3c(cc2Oc2cc(C)cc(C)c2)C(=O)N(C)[C@@H](CC(=O)N(C)O)C(=O)N3)c(Br)c(OC)c1OC`, the GI50 with NCI/ADR-RES ovarian is 0.777 µM; in the assay on MCF7 breast, under 0.00333 µM; with PC-3 prostate, under 0.00333 µM; in the assay on BT-549 breast, under 0.00333 µM. For the same compound, the TGI is 7.34 µM in the assay on NCI/ADR-RES ovarian, 0.00821 µM in the assay on MCF7 breast, 0.00358 µM in the assay on PC-3 prostate and under 0.00333 µM in the assay on BT-549 breast.

As for `CCOc1cccc(/C=N/NC(=O)C(=O)Nc2cccc(C(F)(F)F)c2)c1O`, the GI50 in the assay with NCI/ADR-RES ovarian is 2.02 µM; in the assay on MCF7 breast, 2.14 µM; in the assay with PC-3 prostate, 1.95 µM; in the assay with BT-549 breast, 5.36 µM. The TGI in the assay on NCI/ADR-RES ovarian was 37.1 µM; in the assay with MCF7 breast, over 100 µM; in the assay with PC-3 prostate, over 100 µM; in the assay with BT-549 breast it was over 100 µM.

As for `Cc1cc(Cl)ccc1Nc1nc(C(F)(F)F)ccc1C(=O)N/N=C/c1ccc([N+](=O)[O-])cc1`, the GI50 with NCI/ADR-RES ovarian is 1.98 µM; with MCF7 breast, 1.58 µM; with PC-3 prostate it was 0.598 µM; with BT-549 breast it was 1.5 µM. In addition, the TGI in the assay with NCI/ADR-RES ovarian is over 32.5 µM; in the assay on MCF7 breast, 6.93 µM; in the assay on BT-549 breast, 4.96 µM.

Take `Cc1sc2nc3c4ccccc4c(NCCCN(C)C)nn3c(=O)c2c1C`: the GI50 in the assay with NCI/ADR-RES ovarian was 10.7 µM; with MCF7 breast, 1.43 µM; in the assay with PC-3 prostate it was 11.5 µM; with BT-549 breast it was 11.7 µM. Also, the TGI with NCI/ADR-RES ovarian was 24.8 µM; in the assay with MCF7 breast it was 5.63 µM; in the assay with PC-3 prostate, 24.2 µM; in the assay on BT-549 breast, 26.9 µM.

Regarding `CCOc1cc(/C=N\Nc2nnc(C)n2N)c(C)cc1N(CCCl)CCCl`, the GI50 with NCI/ADR-RES ovarian is 1.37 µM; with MCF7 breast, 0.391 µM; in the assay with PC-3 prostate, 0.927 µM; in the assay with BT-549 breast, 1.33 µM. The TGI in the assay on NCI/ADR-RES ovarian is 14.3 µM; with MCF7 breast, over 25.7 µM; in the assay on PC-3 prostate, 7.41 µM; in the assay with BT-549 breast it was 20.6 µM.

For `C=CC(=O)Nc1cc2c(Nc3ccc(F)c(Cl)c3)ncnc2cc1OCCCN1CCOCC1`, the GI50 with NCI/ADR-RES ovarian is 1.71 µM and 2.36 µM; in the assay on MCF7 breast, 1.32 µM and 2.52 µM; in the assay on PC-3 prostate, 2.76 µM and 4.33 µM; in the assay with BT-549 breast, 2.04 µM and 2.57 µM. For the same compound, the TGI in the assay with NCI/ADR-RES ovarian is 8.79 µM and > 10 µM; in the assay on MCF7 breast, 7.01 µM and > 10 µM; in the assay with PC-3 prostate, 9.85 µM and > 10 µM; in the assay on BT-549 breast, 5.7 µM and > 7.88 µM.

For the compound `O=C(O)C1CCCCC1C(=O)O.[NH-]C1CCC1.[NH2-].[Pt+2]` (stereo not given), the GI50 in the assay on NCI/ADR-RES ovarian was 33.8 µM; with MCF7 breast, 22.7 µM; in the assay with PC-3 prostate, over 100 µM; in the assay with BT-549 breast, 19.8 µM. The TGI in the assay on NCI/ADR-RES ovarian is over 100 µM; in the assay with MCF7 breast, over 100 µM; with PC-3 prostate, over 100 µM; in the assay on BT-549 breast, 77.9 µM.

As to `O=C(O)c1ccc2c(c1)CCCC(c1ccc(Cl)cc1Cl)=C2c1ccc(O[C@H]2CCN(CCCF)C2)cc1`, the GI50 is 13 µM in the assay with NCI/ADR-RES ovarian, under 0.01 µM in the assay with MCF7 breast, 10.4 µM with PC-3 prostate and 10 µM in the assay with BT-549 breast. Also, the TGI in the assay with NCI/ADR-RES ovarian amounted to 27.4 µM; in the assay on MCF7 breast, 15.9 µM; in the assay with PC-3 prostate, 24.2 µM; with BT-549 breast, 22.9 µM.

As to `COc1cc2ncnc(Nc3ccc(F)c(Cl)c3)c2cc1NC(=O)/C=C/CN1CCCCC1`, the GI50 in the assay on NCI/ADR-RES ovarian was 1.48 µM and 1.12 µM; with MCF7 breast, 2 µM and 2.03 µM; in the assay on PC-3 prostate it was 2.53 µM and 2.78 µM; with BT-549 breast, 2.49 µM and 2.56 µM. Also, the TGI in the assay on NCI/ADR-RES ovarian was 7.15 µM and 6.37 µM; in the assay on MCF7 breast, 6.32 µM and 6.56 µM; in the assay on PC-3 prostate, 10.5 µM and > 10 µM; in the assay on BT-549 breast, 8.32 µM and 9.98 µM.

Consider `Nc1ccccc1C#C/C=C\C#Cc1ccccc1`, for which the values for the GI50 with NCI/ADR-RES ovarian, in the assay with PC-3 prostate and in the assay with BT-549 breast were 14.8 µM, 12.3 µM and 3.29 µM, respectively. Further, the TGI came to 32.4 µM in the assay with NCI/ADR-RES ovarian, 54.1 µM in the assay with PC-3 prostate and 16.3 µM with BT-549 breast.

As for `Cc1cc(S(=O)(=O)NC#N)c(S/C(=N\Nc2ccc([N+](=O)[O-])cc2)c2ccc(Cl)cc2)cc1Cl`, the GI50 is 15.9 µM in the assay with MCF7 breast, 33.6 µM in the assay on PC-3 prostate and 20.3 µM with BT-549 breast. The TGI is 42.6 µM in the assay on MCF7 breast, over 100 µM in the assay with PC-3 prostate and 73.4 µM in the assay on BT-549 breast.

Consider `CC[PH+](CC)CC.O=COC1OC([S-])C(OC=O)C(OC=O)C1OC=O.[Au+]` (stereo not given), for which the GI50 with NCI/ADR-RES ovarian was 2.21 µM; in the assay on PC-3 prostate it was 1.66 µM; in the assay with BT-549 breast, 1.25 µM. For the same compound, the TGI in the assay with NCI/ADR-RES ovarian turned out to be 5.03 µM; with PC-3 prostate it was 3.54 µM; with BT-549 breast, 2.54 µM.

With `Fc1cc2[nH]ncc2c2c3c(c(-c4cn[nH]c4C(F)(F)F)nc12)C1CCC3C1` (stereo not given), the GI50 in the assay on NCI/ADR-RES ovarian was 2.4 µM; in the assay with MCF7 breast, 0.815 µM; with BT-549 breast it was 0.883 µM. The TGI was determined as 16.1 µM in the assay with NCI/ADR-RES ovarian, 5.57 µM with MCF7 breast and 2.97 µM in the assay on BT-549 breast.
